Data set [1] in a line: Liver Microsome Stability Assay (rat). The note with it: rat liver microsomes, with NADPH, 1.0 uM compound. (Liver microsomes are vesicles of endoplasmic reticulum, rich in cytochrome P450 enzymes.)
Procedure: (§1) Stability of a compound was assessed in the presence of liver microsomes from various sources—mouse, rat, monkey and human liver microsomes. 1.0 uM compound, 0.4% DMSO in 0.1 M Potassium Phosphate with 1.0 mg/mL liver microsomes, were incubated at 37° C. with or without 1 mM NADPH. The samples were quenched at 0, and 30 minutes.
The test system of data set [2] is IL-2-FL/Gaussia Luciferase. As to the kind of experiment: Dox Induced IL2-FL-Gluc Assay. The data set is classed as cell-based. The note with it: for IC50: 24 hr Dox induction, 293FRT/TO cells, read-out: 24 hr Dox Inducible IL2FLGluc 293FRT/TO: Mean IC50; for 24 hr Dox Inducible IL2FLGluc 293FRT/TO: IL2/PD1: ratio of IL2FLGluc IC50 to PD1ssGluc IC50. The method in brief: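 Compounds in DMSO/medium with doxycycline were applied to a 293 T-REx stable line expressing an IL-2 (aa 1-153)–Gaussia luciferase fusion under tetracycline-regulated control, cells seeded one day earlier; incubation at 37 °C, 5% CO2. Structures drawn without stereochemistry were tested as stereoisomer mixtures.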

Data set [3] can be described thus: Liver Microsome Stability Assay (human). The note with it: human liver microsomes, with NADPH, 1.0 uM compound.
Procedure: as §1
For data set [4], the system named is multiple myeloma cell line NCI-H929. As to the kind of experiment: H929 Cell Viability Assay. Format: cell-based, human. The note with it: Homo sapiens, NCI-H929, 48 h, NCI-H929 cells, Celltiter-Glo. An outline of the steps: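 Luminescent CellTiter-Glo read-out of viability after a 48 h exposure (37° C, 5% CO2) of NCI-H929 myeloma cells to compound dilutions in RPMI 1640 plus 10% FBS. Data for structures drawn without stereochemistry refer to stereoisomer mixtures.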
(In general: Cellular ATP, detected with luciferase, serves as a proxy for viable cell number.)

The nature of data set [5]: Liver Microsome Stability Assay (mouse). The conditions noted are these: mouse liver microsomes, with NADPH, 1.0 uM compound.
Procedure: as §1
For data set [6], the system named is multiple myeloma cell line U266B1. Briefly: U266 Cell Viability Assay. The conditions noted are these: Homo sapiens, U-266, 48 h, U266B1 cells, Celltiter-Glo. The data set is classed as cell-based, human. An outline of the steps:
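CellTiter-Glo luminescence was read after a 48 h compound exposure (37 °C, 5% CO2) of human U266B1 myeloma cells grown in 10% FBS-supplemented RPMI 1640. Data for structures shown without defined stereochemistry refer to stereoisomer mixtures.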

A short description of data set [7]: Liver Microsome Stability Assay (monkey). The note with it: monkey liver microsomes, with NADPH, 1.0 uM compound.
Procedure: as §1
Data set [8] has as its system PD1-ss+10aa/Gaussia Luciferase. As to the kind of experiment: Dox-Induced PD1-ss-Gluc Assay. Format: cell-based. The conditions noted are these: 24 hr Dox induction, 293FRT/TO cells, read-out: 24 hr Dox Inducible PD1ssGluc 293FRT/TO: Mean IC50. An outline of the steps: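 Doxycycline-induced expression of a PD1-ss+10aa/Gaussia luciferase reporter is measured in stable Flp-In 293 T-REx cells. Compound dilutions containing doxycycline are added one day after plating and incubated at 37 °C, 5% CO2. Values for unassigned stereocentres refer to stereoisomer mixtures.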

The subject of data set [9] is HER3-ss+4aa/Gaussia Luciferase. As to the kind of experiment: Dox-Induced Her3-ss-Gluc Assay. The data set is classed as cell-based. The conditions noted are these: 24 hr Dox induction, 293FRT/TO cells, read-out: 24 hr Dox Inducible Her3(ss + 4)Gluc 293FRT/TO: Mean IC50. An outline of the steps: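 Compounds were diluted in DMSO/media containing doxycycline. They were added to Flp-In 293 T-REx cells plated the previous day, then incubated at 37 °C under 5% CO2. These cells stably express, under T-REx control, Gaussia luciferase fused to the HER3 signal sequence plus 4 amino acids.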

Data set [10] concerns TNFα-FL/Gaussia Luciferase. Briefly: Dox Induced TNFα-FL-Gluc Assay. The data set is classed as cell-based. The conditions noted are these: for IC50: 24 hr Dox induction, 293FRT/TO cells, read-out: 24 hr Dox Inducible TNFaFLGluc 293FRT/TO: Mean IC50; for 24 hr Dox Inducible TNFaFLGluc 293FRT/TO: TNF/PD1: ratio of TNFaFLGluc IC50 to PD1ssGluc IC50. The method in brief: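 Compound was added with doxycycline to cells plated a day earlier, incubating at 37° C under 5% CO2. The reporter line is 293 T-REx expressing a TNFα (1-233)–Gaussia luciferase fusion under tetracycline-regulated control.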

Setting [11] is: '<=>' given where both are I.A.

Read-outs that look alike come from different tables or passages of the source. Bounds are passed on as bounds.

The EC50 is the concentration at which the effect is half-maximal.

Turning to `O=C(Nc1nc([C@H]2CCCN2c2ccccc2)cs1)c1cccn1CC1CCOCC1` [Compound C55, (R)-N-(4-(1-phenylpyrrolidin-2-yl)thiazol-2-yl)-1-((tetrahydro-2H-pyran-4-yl)methyl)-1H-pyrrole-2-carboxamide], the “Liver Microsome Stability (Multiple Species): Rat - % Remaining after 30 min w/NADPH” value in data set [1] is on record as 22.5%. Besides, the IC50 in [2] (mean) was determined as 0.74 µM; in data set [8] (mean), 0.168 µM; in data set [9] (mean), 0.374 µM; in data set [10] (mean) it was 2.56 µM. Besides, the “24 hr Dox Inducible IL2FLGluc 293FRT/TO: IL2/PD1” value in data set [2] (setting [11]) was found to be 4.4. Moreover, the “Liver Microsome Stability (Multiple Species): Human - % Remaining after 30 min w/NADPH” value in [3] is listed as 26.7%. Further, the EC50 in data set [4] was 20.1 µM; in [6], more than 25 µM. Also, the “Liver Microsome Stability (Multiple Species): Mouse - % Remaining after 30 min w/NADPH” value in [5] was determined as 22.7%. Also, the “Liver Microsome Stability (Multiple Species): Monkey - % Remaining after 30 min w/NADPH” value in data set [7] is on record as 6.6%. In addition, the “24 hr Dox Inducible TNFaFLGluc 293FRT/TO: TNF/PD1” value in [10] (setting [11]) was 15.3.

Regarding `Cc1ccnc(/C=C/c2csc(NC(=O)c3cccn3Cc3ccncc3)n2)c1` [Compound E1, (E)-N-(4-(2-(4-methylpyridin-2-yl)vinyl)thiazol-2-yl)-1-(pyridin-4-ylmethyl)-1H-pyrrole-2-carboxamide], the “Liver Microsome Stability (Multiple Species): Rat - % Remaining after 30 min w/NADPH” value in [1] is reported as 0.33%. For the same molecule, the IC50 in data set [2] (mean) is 22.1 µM; in data set [8] (mean) it was 0.154 µM; in data set [9] (mean) it was 4.13 µM; in data set [10] (mean), more than 25 µM. In data set [2] (setting [11]), the “24 hr Dox Inducible IL2FLGluc 293FRT/TO: IL2/PD1” value is given as 140. Besides, the “Liver Microsome Stability (Multiple Species): Human - % Remaining after 30 min w/NADPH” value in data set [3] turned out to be 0.57%. The values for the EC50 in data set [4] and in [6] were 23.9 µM and more than 25 µM, respectively. Further, the “Liver Microsome Stability (Multiple Species): Mouse - % Remaining after 30 min w/NADPH” value in data set [5] was 0.33%. In addition, in [7], the “Liver Microsome Stability (Multiple Species): Monkey - % Remaining after 30 min w/NADPH” value is recorded as 0.53%. Also, the “24 hr Dox Inducible TNFaFLGluc 293FRT/TO: TNF/PD1” value in data set [10] (setting [11]) is listed as more than 163.

With `N#CCC1(Cn2cccc2C(=O)Nc2nc([C@H]3CCCN3c3ccccc3)cs2)CC1` [Compound C8, (R)-1-((1-(cyanomethyl)cyclopropyl)methyl)-N-(4-(1-phenylpyrrolidin-2-yl)thiazol-2-yl)-1H-pyrrole-2-carboxamide], in data set [1], the “Liver Microsome Stability (Multiple Species): Rat - % Remaining after 30 min w/NADPH” value came to 8.76%. In addition, the IC50 was 22.4 µM in data set [2] (mean), 3.78 µM in [8] (mean), 9.47 µM in [9] (mean) and more than 25 µM in data set [10] (mean). In addition, the “24 hr Dox Inducible IL2FLGluc 293FRT/TO: IL2/PD1” value in data set [2] (setting [11]) stood at 5.9. For the same molecule, the “Liver Microsome Stability (Multiple Species): Human - % Remaining after 30 min w/NADPH” value in data set [3] was found to be 5.88%. Moreover, the 50% effective concentration (EC50) in data set [4] and in data set [6] was more than 25 µM throughout. The “Liver Microsome Stability (Multiple Species): Mouse - % Remaining after 30 min w/NADPH” value in data set [5] is 1.66%. Moreover, the “Liver Microsome Stability (Multiple Species): Monkey - % Remaining after 30 min w/NADPH” value in [7] turned out to be 1.37%. Further, the “24 hr Dox Inducible TNFaFLGluc 293FRT/TO: TNF/PD1” value in [10] (setting [11]) is more than 6.61.

In the case of `O=C(Nc1nc([C@H]2CCCN2c2ccccc2)cs1)c1cccn1CCc1cccnc1` [Compound E21, (R)-N-(4-(1-phenylpyrrolidin-2-yl)thiazol-2-yl)-1-(2-(pyridin-3-yl)ethyl)-1H-pyrrole-2-carboxamide], the “Liver Microsome Stability (Multiple Species): Rat - % Remaining after 30 min w/NADPH” value in data set [1] was determined as 0.1%. Further, the IC50 was more than 25 µM in data set [2] (mean), 6.48 µM in data set [8] (mean), more than 25 µM in data set [9] (mean) and more than 25 µM in data set [10] (mean). The “24 hr Dox Inducible IL2FLGluc 293FRT/TO: IL2/PD1” value in data set [2] (setting [11]) was more than 3.9. The “Liver Microsome Stability (Multiple Species): Human - % Remaining after 30 min w/NADPH” value in data set [3] is 0.8%. In addition, the concentration for a half-maximal effect (EC50) was found to be 15.6 µM in data set [4] and 23.7 µM in data set [6]. Besides, the “Liver Microsome Stability (Multiple Species): Mouse - % Remaining after 30 min w/NADPH” value in data set [5] was determined as 0.02%. The “Liver Microsome Stability (Multiple Species): Monkey - % Remaining after 30 min w/NADPH” value in data set [7] is on record as 0.23%. For the same molecule, the “24 hr Dox Inducible TNFaFLGluc 293FRT/TO: TNF/PD1” value in data set [10] (setting [11]) is given as more than 3.86.

For `Cn1cccc1C(=O)Nc1nc([C@H]2CCCN2c2ccccc2)cs1` [Compound C17, (R)-1-methyl-N-(4-(1-phenylpyrrolidin-2-yl)thiazol-2-yl)-1H-pyrrole-2-carboxamide], the “Liver Microsome Stability (Multiple Species): Rat - % Remaining after 30 min w/NADPH” value in data set [1] turned out to be 10.3%. Further, the IC50 in data set [2] (mean) was 6.75 µM; in data set [8] (mean), 22.3 µM; in data set [9] (mean) it was more than 25 µM; in data set [10] (mean), more than 25 µM. For the same molecule, in data set [2] (setting [11]), the “24 hr Dox Inducible IL2FLGluc 293FRT/TO: IL2/PD1” value stood at 0.3. In [3], the “Liver Microsome Stability (Multiple Species): Human - % Remaining after 30 min w/NADPH” value is recorded as 58.7%. The EC50 in [4] and in data set [6] was more than 25 µM throughout. Besides, the “Liver Microsome Stability (Multiple Species): Mouse - % Remaining after 30 min w/NADPH” value in [5] was determined as 9.27%. Besides, in [7], the “Liver Microsome Stability (Multiple Species): Monkey - % Remaining after 30 min w/NADPH” value is reported as 30.9%. In addition, the “24 hr Dox Inducible TNFaFLGluc 293FRT/TO: TNF/PD1” value in data set [10] (setting [11]) is recorded as more than 1.12.

With `O=C(Nc1nc([C@H]2CCCN2c2ccc(CO)cc2)cs1)c1cccn1Cc1ccnc(F)c1` [Compound A113, (R)-1-((2-fluoropyridin-4-yl)methyl)-N-(4-(1-(4-(hydroxymethyl)phenyl)pyrrolidin-2-yl)thiazol-2-yl)-1H-pyrrole-2-carboxamide], the “Liver Microsome Stability (Multiple Species): Rat - % Remaining after 30 min w/NADPH” value in data set [1] is listed as 0.64%. Moreover, the IC50 worked out at 0.0179 µM in [2], 0.00982 µM in data set [8], 0.0226 µM in [9] and 0.136 µM in [10]. The “24 hr Dox Inducible IL2FLGluc 293FRT/TO: IL2/PD1” value in [2] is reported as 1.8. In addition, the “Liver Microsome Stability (Multiple Species): Human - % Remaining after 30 min w/NADPH” value in data set [3] came to 0.61%. Besides, the EC50 in [4] is 0.615 µM; in data set [6], more than 25 µM. In data set [5], the “Liver Microsome Stability (Multiple Species): Mouse - % Remaining after 30 min w/NADPH” value amounted to 4.74%. The “Liver Microsome Stability (Multiple Species): Monkey - % Remaining after 30 min w/NADPH” value in data set [7] came out at 1.3%. Besides, in [10], the “24 hr Dox Inducible TNFaFLGluc 293FRT/TO: TNF/PD1” value was determined as 13.9.

As for `O=C(Nc1nc([C@H]2CCCN2c2ccccc2)cs1)c1cccn1Cc1ccnnc1` [Compound C102, (R)-N-(4-(1-phenylpyrrolidin-2-yl)thiazol-2-yl)-1-(pyridazin-4-ylmethyl)-1H-pyrrole-2-carboxamide], in [1], the “Liver Microsome Stability (Multiple Species): Rat - % Remaining after 30 min w/NADPH” value was 2.73%. The IC50 is 0.0975 µM in data set [2] (mean), 0.0442 µM in [8] (mean), 0.109 µM in data set [9] (mean) and 0.984 µM in data set [10] (mean). Besides, in data set [2] (setting [11]), the “24 hr Dox Inducible IL2FLGluc 293FRT/TO: IL2/PD1” value amounted to 2.2. Also, the “Liver Microsome Stability (Multiple Species): Human - % Remaining after 30 min w/NADPH” value in [3] is 0.93%. In addition, the figures for the EC50 in data set [4] and in data set [6] were 3.98 µM and 14.6 µM, respectively. The “Liver Microsome Stability (Multiple Species): Mouse - % Remaining after 30 min w/NADPH” value in data set [5] is 6.44%. In [7], the “Liver Microsome Stability (Multiple Species): Monkey - % Remaining after 30 min w/NADPH” value was determined as 0.39%. Moreover, the “24 hr Dox Inducible TNFaFLGluc 293FRT/TO: TNF/PD1” value in [10] (setting [11]) amounted to 22.2.

Values taken from patent US20230286973A1, “PROTEIN SECRETION INHIBITORS” (KEZAR LIFE SCIENCES, priority 2020, published 2023).
